# Reference: article PMC4632503, “Targeting of Helicobacter pylori thymidylate synthase ThyX by non-mitotoxic hydroxy-naphthoquinones” (Open Biology, 2015)
# “Also recorded” adds a separate entry of the source. Read-outs that look alike come from different tables or passages of the source.
# What was measured:
# HpThyX [1] = target: T1, HpThyX (Helicobacter pylori, UniProt O26061); assay: tritium release (deprotonation) assay of [5-3H]dUMP; type: biochemical; conditions: for remaining activity at 100 µM: 20 min, semi-quantitative deprotonation assay, lower = stronger inhibition, read-out: inhibition against ThyX (% remaining activity relative to control); for dTMP-forming activity: quantitative tritium release assay, 100 μM compound, 10 μM ThyX enzyme
# T1 construct: His6; made in house; host or cells: Escherichia coli BL21 (plasmid pGL2, pBAD promoter)
# Protocol: (§1) HpThyX activity was assessed by measuring either deprotonation of [5-^3H]dUMP or NAPDH oxidation activities.
# In the tritium release (deprotonation) assays, typical reactions contained 10 mM MgCl2, 10% (v/v) glycerol, 500 µM FAD, 2 mM NADPH, 1 mM CH2H4Folate and 10 mM β-mercaptoethanol in 50 mM HEPES (pH 8). Different concentrations of dUMP were also included in the reaction mixtures. The specific activity of tritiated [5-^3H]dUMP (diammonium salt) stock was 15–30 Ci mmol^−1 (Moravek Biochemicals, CA, USA). 2-OH-1,4-NQ derivatives were prepared at 100 µM in 1% DMSO. Reactions were initiated by adding the enzyme (10 µM) and were stopped after 20 min incubation at 37°C.
# H. pylori strain 26695 = assay: MIC, broth microdilution test, strain 26695; type: cell-based; conditions: Helicobacter pylori
# Protocol: (§2) The in vitro anti-bacterial activity of 2-OH-1,4-NQ compounds was assessed against the 26695 and SS1 strains of H. pylori. DMSO was used as control in all experiments.
# (§3) Disc diffusion tests were performed in triplicate, including a DMSO-only control on each plate, as specified in the electronic supplementary material. Minimal inhibitory concentrations (MICs) were determined using a broth microdilution test in 24-well microtitre plates. For test inocula, an overnight preculture of H. pylori strains 26695 and SS1 was diluted to an OD600 of approximately 0.1 and 0.5 ml of this suspension was transferred to each well. Ten microlitres of twofold serial dilutions of each compound in DMSO, ranging in concentration from 0.625 to 20 µg ml^−1, were added and the covered plates were incubated for 24 h at 37°C with orbital shaking at 140 r.p.m. under microaerophilic conditions. The MIC was determined as the lowest compound concentration resulting in full growth inhibition after 24 h of incubation. All the tests were done in triplicate, including cell-free and DMSO-only controls.
# H. pylori strain SS1 [2] = assay: MIC, broth microdilution test, strain SS1; type: cell-based; conditions: Helicobacter pylori, 24 h, read-out: minimal inhibitory concentration (MIC) strain SS1
# Protocol: as §2, §3
# AGS cells [3] = assay: cytotoxicity, LDH release; type: cell-based, human; conditions: 0.78 to 50 μg ml^−1, 24 h
# Protocol: Cytotoxicity of the 2-OH-1,4-NQ derivatives was assessed by measuring lactate dehydrogenase (LDH) release following manufacturer's instructions (Cytotoxicity Detection Kit; Roche Applied Sciences). Briefly, AGS cells (human gastric adenocarcinoma cell line; ATCC Catalog no. CRL-1739TM) were cultured in Ham's F-12 K medium containing 1% of FBS. A total of 3 × 10^4 cells were added per well in a sterile 96-well tissue culture plate. Cells were then treated with different doses of 2-OH-1,4-NQ compounds ranging from 0.78 to 50 μg ml^−1. After a 24 h incubation at 37°C (5% CO2, 90% humidity), the microplates were centrifuged at 250g for 10 min, and the supernatants were carefully removed and transferred into optically clear 96-well microplates (Greiner Bio-One). The dye solution containing iodotetrazolium chloride and sodium lactate was then added to each well to quantify the amount of LDH released into the extracellular medium. LDH was quantified by measuring the A490 using a PowerWave Microplate Spectrophotometer (BioTek).
# [4] = system: H. pylori strains 26695 and SS1; assay: disc diffusion test; type: cell-based, Helicobacter pylori; conditions: 10 μg per disc, 72 h
# Protocol: as §3
# Figure S2. Disk diffusion antibiograms of H. pylori strains 26695 (A) and SS1 (B) with the 2-OH-1,4-NQ compounds. To perform these disc diffusion tests, an overnight culture of the H. pylori strain was diluted to an OD600 ≈ 0.01. Blood agar plates were flooded with 2 ml of the diluted suspension. […] The diameters of each growth inhibition zone were measured on the Petri dish. […]
# subtracting the disc diameter (6 mm) from the measured zone. […]
# HpThyX [5] = target: T1, HpThyX; assay: NADPH oxidation assay; type: biochemical; conditions: estimated from slope of IC50 versus dUMP concentration
# Protocol: as §1
# NADPH oxidation assays were performed at 37°C in 96-well plates (Greiner Bio-One). One hundred microlitres of reaction mixture contained HEPES 50 mM (pH 8.6), NaCl 150 mM, FAD 50 µM, β-mercaptoethanol 1.43 mM, NADPH 500 µM and 10 µM of purified HpThyX. dUMP and 2-OH-1,4-NQ concentrations were varied across 12.5–200 µM and 0.3–100 µM, respectively. Microtitre plates were prepared and transferred to the microplate reader Chameleon II (Hidex). The reactions were started by automatically injecting NADPH into individual wells and ThyX activity was determined by following a decrease in absorbance at 340 nm. A molar extinction coefficient of 6220 M^−1 cm^−1 at 340 nm (ε340) was used to quantify NADPH oxidation. Samples with added DMSO and enzyme-free reactions were used as positive and negative controls, respectively.
# AGS cells [6] = assay: mitotoxicity, resazurin reduction; type: cell-based, human; conditions: for mitotoxicity: 0.78 to 50 μg ml^−1, 4 h treatment; for effect on mitochondrial metabolism: low concentrations, resazurin reduction
# Protocol: Mitochondrial toxicity (mitotoxicity) was assessed by measuring resazurin (7-hydroxy-3H-phenoxazin-3-one 10-oxide) reduction by following absorption changes at 570 nm (Mitochondrial Viability Assay; Abcam). Resazurin is an indicator dye that reports on oxidation–reduction reactions taking place in the mitochondria of living cells. AGS cells (≅2.5 × 10^5cells well^−1) cultured in a DMEM galactose/glutamine-supplemented medium were seeded in sterile white-walled 96-well clear-bottom microplates and treated for 4 h with different doses of 2-OH-1,4-NQ compounds ranging from 0.78 to 50 μg ml^−1. Addition of the stain solution was followed by a further 4 h incubation at 37°C (5% CO2, 90% humidity) and A570 was measured. Rotenone, an inhibitor of the mitochondrial respiratory chain complex I, was used as a positive control.
# H. pylori strain SS1 [7] = assay: mouse infection and treatment, gastric colonization; type: in vivo, Helicobacter pylori; conditions: NMRI mice, orogastric three times a day, 0.375 mg mouse day^−1 (17 mg kg^−1), one week
# Protocol: (§4) NMRI-specific pathogen-free mice (Charles River Laboratories) were orogastrically inoculated with 10^8 CFU of the H. pylori mouse-adapted strain SS1, prepared in 100 μl of peptone broth. Four groups of six to eight mice were infected by H. pylori strain SS1. Earlier experiments have established that after one week, colonization of mice is fully established. A negative control group of five mice was inoculated with peptone broth alone and was not colonized by H. pylori. One week after infection, three groups of mice were treated orogastrically three times a day with 500 µl of either compound 010-C, 010-E or 010-I dissolved in 2% β-cyclodextrin at 0.25 mg ml^−1 (0.375 mg mouse d^−1) during one week. As a control, the fourth group of mice was treated orogastrically three times a day by the same amount of 2% β-cyclodextrin (17.6 mM), the vehicle of the compounds. […] This average size is in agreement with the average size of β-cyclodextrin particles that self-aggregate in water at a concentration of 12 mM [39]. After treatment, viable H. pylori cells, colonizing the mouse stomach, were enumerated by culture of serial dilutions of homogenized tissue on blood agar plates containing bacitracin (200 μg ml^−1) and nalidixic acid (10 μg ml^−1) as in [40].
# [8] = tolerance of orogastric treatment in infected mice; type: in vivo, NMRI mice; conditions: orogastric three times a day, 0.375 mg mouse day^−1, one week
# Protocol: as §4
# H. pylori 26695 = assay: bactericidal activity, viable counts (CFU) in liquid culture; type: cell-based, Helicobacter pylori; conditions: exposure up to 24 h, replating on solid media, listed as C8-C1
# Protocol: To determine the bactericidal activity of C8-C1 against H. pylori, liquid BHI medium was inoculated with an overnight culture of H. pylori 26695 at an initial OD600 of 0.1. C8-C1 or chloramphenicol, used as bacteriostatic control, were added after 4 h of culture time at final concentrations of 5 and 30 µg ml^−1. To determine the viable counts of surviving bacteria (colony forming units, CFU), aliquots of culture were then plated in triplicate on blood agar plates after 3 and 24 h exposure.
# [9] = 26695, 24 h, full growth inhibition, read-out: minimal inhibitory concentration (MIC) strain 26695
# [10] = 26695, 24 h, value in brackets, read-out: minimal inhibitory concentration (MIC) strain 26695
# T1 sequence (O26061 whole entry): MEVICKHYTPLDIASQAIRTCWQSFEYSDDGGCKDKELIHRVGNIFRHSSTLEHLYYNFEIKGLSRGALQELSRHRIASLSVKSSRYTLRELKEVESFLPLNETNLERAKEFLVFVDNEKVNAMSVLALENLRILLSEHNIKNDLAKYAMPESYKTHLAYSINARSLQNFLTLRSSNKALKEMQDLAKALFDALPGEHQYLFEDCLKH
SMILES,remaining activity at 100 µM (HpThyX [1]),MIC (H. pylori strain 26695; [9]),MIC (H. pylori strain 26695; [10]),"MIC (H. pylori strain 26695; liquid cultures, strains 26695 and SS1 not distinguished, read-out: MIC)",MIC (H. pylori strain SS1 [2]; full growth inhibition),MIC (H. pylori strain SS1 [2]; value in brackets),cytotoxicity (AGS cells [3]),activity in disc diffusion tests [4],dTMP-forming activity (HpThyX [1]),Ki (HpThyX [5]),mitotoxicity (AGS cells [6]),effect on mitochondrial metabolism (AGS cells [6]),decrease in the colonization loads (geometric means) versus vehicle (H. pylori strain SS1 [7]),decrease in the colonization loads versus vehicle (H. pylori strain SS1 [7]),tolerance in mice [8],effect on body or stomach weight ([8]; data not shown),kind of anti-microbial activity / viable cells after exposure (H. pylori 26695)
O=C1C(Cl)=C(Nc2ccc(F)cc2)C(=O)c2ccccc21 [010-G],21.1%,0.625 µg/mL,2.07 µM,~0.625 µg/mL,0.625 µg/mL,2.07 µM,cytotoxic,inactive,,,,,,,,,
CCCCC1=C(O)C(=O)c2ccccc2C1=O [010-I],64.3%,10 µg/mL,43.4 µM,,10 µg/mL,43.4 µM,non-cytotoxic,,suppressed the dTMP-forming activity,0.258 µM,non-mitotoxic,activated the mitochondrial metabolism,1.22 log,17 fold,tolerated in mice,None of the aforementioned treatments affected either the body or stomach weight,
"COc1ccc(CC2=C(O)C(=O)c3ccccc3C2=O)cc1 [007-A, 2-hydroxy-3-(4-methoxybenzyl)-1,4-naphthoquinone]",38.5%,10 µg/mL,34 µM,,10 µg/mL,34 µM,non-cytotoxic,,suppressed the dTMP-forming activity,0.367 µM,non-mitotoxic,activated the mitochondrial metabolism,,,,,no viable cells were recovered; also recorded: bactericidal
